Data: PubChem BioAssay (NCI)
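Grown in 96-well plates, cells were treated for 48 hours with each compound at five concentrations. Insufficient inhibition: endpoint recorded as highest concentration tested. TGI denotes the concentration required for complete inhibition of growth.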

How the values were obtained:
Assay in all cases: NCI tumour cell line growth inhibition, 48 h
[1] = test system: 786-0 renal
[2] = test system: A498 renal
[3] = test system: A549 NSCLC
[4] = test system: ACHN renal
[5] = test system: CAKI-1 renal
[6] = test system: CCRF-CEM leukemia
[7] = test system: DLD-1 colon
[8] = test system: DMS 114 small cell lung
[9] = test system: DMS 273 small cell lung
[10] = test system: EKVX NSCLC
[11] = test system: HCC-2998 colon
[12] = test system: HCT-116 colon
[13] = test system: HCT-15 colon
[14] = test system: HL-60(TB) leukemia
[15] = test system: HOP-92 NSCLC
[16] = test system: HT29 colon
[17] = test system: IGROV1 ovarian
[18] = test system: K-562 leukemia
[19] = test system: KM20L2 colon
[20] = test system: LOX IMVI melanoma
[21] = test system: LXFL 529 NSCLC
[22] = test system: M14 melanoma
[23] = test system: M19-MEL melanoma
[24] = test system: MALME-3M melanoma
[25] = test system: MOLT-4 leukemia
[26] = test system: NCI-H226 lung
[27] = test system: NCI-H23 lung
[28] = test system: NCI-H460 lung
[29] = test system: OVCAR-3 ovarian
[30] = test system: OVCAR-4 ovarian
[31] = test system: OVCAR-5 ovarian
[32] = test system: OVCAR-8 ovarian
[33] = test system: RPMI-8226 leukemia
[34] = test system: RXF 393 renal
[35] = test system: SF-268 CNS
[36] = test system: SF-295 CNS
[37] = test system: SF-539 CNS
[38] = test system: SK-MEL-2 melanoma
[39] = test system: SK-MEL-28 melanoma
[40] = test system: SK-MEL-5 melanoma
[41] = test system: SN12C renal
[42] = test system: SNB-19 CNS
[43] = test system: SNB-75 CNS
[44] = test system: SNB-78 CNS
[45] = test system: SR leukemia
[46] = test system: SW-620 colon
[47] = test system: TK-10 renal
[48] = test system: U251 CNS
[49] = test system: UACC-257 melanoma
[50] = test system: UACC-62 melanoma
[51] = test system: UO-31 renal
[52] = test system: XF 498 CNS
[53] = test system: COLO 205 colon
[54] = test system: HOP-18 NSCLC
[55] = test system: HOP-62 NSCLC
[56] = test system: KM12 colon
[57] = test system: NCI-H522 lung
[58] = test system: RXF-631 renal
[59] = test system: SK-OV-3 ovarian

**Q.** Which results are given for `Cc1c(Cl)cccc1NC(=O)CC1C(=O)Nc2ccccc2S1(=O)=O` (stereo unspecified)?
**A.** TGI [1]: 32.4 µM; TGI [2]: 28.9 µM; TGI [3]: 33.2 µM; TGI [4]: 31.5 µM; TGI [5]: 38.8 µM; TGI [6]: 47.8 µM; TGI [7]: 30.4 µM; TGI [8]: 44.9 µM; TGI [9]: 21.4 µM; TGI [10]: 70 µM; TGI [11]: 33.4 µM; TGI [12]: 30.3 µM; TGI [13]: 25.7 µM; TGI [14]: 16 µM; TGI [15]: 31.7 µM; TGI [16]: 38.2 µM; TGI [17]: 31.7 µM; TGI [18]: 50.1 µM; TGI [19]: 44.9 µM; TGI [20]: 29.1 µM; TGI [21]: 29 µM; TGI [22]: 29.3 µM; TGI [23]: 55.3 µM; TGI [24]: 42.4 µM; TGI [25]: 24.3 µM; TGI [26]: 35.1 µM; TGI [27]: 37.3 µM; TGI [28]: 30 µM; TGI [29]: 31.7 µM; TGI [30]: 67.2 µM; TGI [31]: 41.5 µM; TGI [32]: 34.5 µM; TGI [33]: 32.3 µM; TGI [34]: 28.9 µM; TGI [35]: 38.2 µM; TGI [36]: 36.5 µM; TGI [37]: 28.7 µM; TGI [38]: 45.9 µM; TGI [39]: 38.6 µM; TGI [40]: 26.7 µM; TGI [41]: 31.9 µM; TGI [42]: 52.3 µM; TGI [43]: 32.5 µM; TGI [44]: 45.5 µM; TGI [45]: 30.3 µM; TGI [46]: 43.7 µM; TGI [47]: 56.6 µM; TGI [48]: 26.5 µM; TGI [49]: 77.8 µM; TGI [50]: 31.7 µM; TGI [51]: 32.1 µM; TGI [52]: 30 µM

**Q.** What does the source list for `Cc1ccc2c(c1)C(c1cccc3ccccc13)OC2=O` (stereo unspecified)?
**A.** TGI [1]: > 100 µM; TGI [2]: 83.9 µM; TGI [3]: > 100 µM; TGI [4]: > 100 µM; TGI [5]: > 100 µM; TGI [6]: > 100 µM; TGI [53]: > 100 µM; TGI [7]: > 100 µM; TGI [8]: > 100 µM; TGI [9]: > 100 µM; TGI [10]: > 100 µM; TGI [11]: > 100 µM; TGI [12]: > 100 µM; TGI [13]: > 100 µM; TGI [14]: > 100 µM; TGI [54]: > 100 µM; TGI [55]: 81.7 µM; TGI [16]: > 100 µM; TGI [17]: > 100 µM; TGI [18]: > 100 µM; TGI [56]: > 100 µM; TGI [19]: > 100 µM; TGI [20]: > 100 µM; TGI [21]: > 100 µM; TGI [22]: > 100 µM; TGI [23]: > 100 µM; TGI [24]: > 100 µM; TGI [25]: > 100 µM; TGI [26]: > 100 µM; TGI [27]: > 100 µM; TGI [28]: > 100 µM; TGI [57]: > 100 µM; TGI [29]: > 100 µM; TGI [30]: > 100 µM; TGI [31]: > 100 µM; TGI [32]: > 100 µM; TGI [34]: 80.4 µM; TGI [58]: > 100 µM; TGI [35]: > 100 µM; TGI [36]: > 100 µM; TGI [38]: > 100 µM; TGI [39]: > 100 µM; TGI [40]: > 100 µM; TGI [59]: > 100 µM; TGI [41]: > 100 µM; TGI [42]: > 100 µM; TGI [43]: > 100 µM; TGI [45]: > 100 µM; TGI [46]: > 100 µM; TGI [47]: > 100 µM; TGI [48]: > 100 µM; TGI [49]: > 100 µM; TGI [50]: > 100 µM; TGI [51]: > 100 µM
